Test results taken from ChEMBL document CHEMBL5505993, “Identification of a ferritinophagy inducer via sinomenine modification for the treatment of colorectal cancer” (Eur J Med Chem, 2024).

Tested on: HCT-116
Experiment: Cytotoxicity against human HCT-116 cells assessed as inhibition of cell growth incubated for 48 hrs by CCK-8 assay
Type: functional, cell-based
Details: HCT-116, 48 h

Compound	IC50 [µM]
COCC(=O)Oc1c(OC)ccc2c1[C@@]13CCN(C)[C@@H](C2)[C@H]1C=C(OC)C(=O)C3	> 50
C=CC(=O)NCCCCCCCCCCCC(=O)Oc1c(OC)ccc2c1[C@@]13CCN(C)[C@@H](C2)[C@H]1C=C(OC)C(=O)C3	20.2
C=CC(=O)NCCCCCCCC(=O)Oc1c(OC)ccc2c1[C@@]13CCN(C)[C@@H](C2)[C@H]1C=C(OC)C(=O)C3	> 50
C=C(Cl)C(=O)NCCCCCCCC(=O)Oc1c(OC)ccc2c1[C@@]13CCN(C)[C@@H](C2)[C@H]1C=C(OC)C(=O)C3	19.6
C=CC(=O)Oc1c(OC)ccc2c1[C@@]13CCN(C)[C@@H](C2)[C@H]1C=C(OC)C(=O)C3	7.04
COC1=C[C@@H]2[C@@H]3Cc4ccc(OC)c(OC(=O)c5ccc(OC)cc5)c4[C@]2(CCN3C)CC1=O	> 50
CCO/C=C/C(=O)Oc1c(OC)ccc2c1[C@@]13CCN(C)[C@@H](C2)[C@H]1C=C(OC)C(=O)C3	> 50
C/C=C/C(=O)Oc1c(OC)ccc2c1[C@@]13CCN(C)[C@@H](C2)[C@H]1C=C(OC)C(=O)C3	> 50
COC1=C[C@@H]2[C@@H]3Cc4ccc(OC)c(OC(=O)/C=C/C(F)(F)F)c4[C@]2(CCN3C)CC1=O	6.01
CCCCCCC(=O)Oc1c(OC)ccc2c1[C@@]13CCN(C)[C@@H](C2)[C@H]1C=C(OC)C(=O)C3	> 50
COC1=C[C@@H]2[C@@H]3Cc4ccc(OC)c(OC(=O)CCNC(=O)/C=C/C(F)(F)F)c4[C@]2(CCN3C)CC1=O	> 50
C=C(C)C(=O)Oc1c(OC)ccc2c1[C@@]13CCN(C)[C@@H](C2)[C@H]1C=C(OC)C(=O)C3	61.4
COC1=C[C@@H]2[C@@H]3Cc4ccc(OC)c(OC(=O)CCCCCCCNC(=O)/C=C/C(F)(F)F)c4[C@]2(CCN3C)CC1=O	> 50
COC1=C[C@@H]2[C@@H]3Cc4ccc(OC)c(OC(=O)/C=C/c5ccccc5)c4[C@]2(CCN3C)CC1=O	> 50
C=C(Cl)C(=O)NCCC(=O)Oc1c(OC)ccc2c1[C@@]13CCN(C)[C@@H](C2)[C@H]1C=C(OC)C(=O)C3	4.76
C=C(Cl)C(=O)Oc1c(OC)ccc2c1[C@@]13CCN(C)[C@@H](C2)[C@H]1C=C(OC)C(=O)C3	12.9
COC1=C[C@@H]2[C@@H]3Cc4ccc(OC)c(OC(=O)C5CC5)c4[C@]2(CCN3C)CC1=O	> 50
COC1=C[C@@H]2[C@@H]3Cc4ccc(OC)c(OC(=O)C(C)C)c4[C@]2(CCN3C)CC1=O	> 50
COC1=C[C@@H]2[C@@H]3Cc4ccc(OC)c(O)c4[C@]2(CCN3C)CC1=O [SINOMENINE]	> 50
COC1=C[C@@H]2[C@@H]3Cc4ccc(OC)c(OC(=O)CCl)c4[C@]2(CCN3C)CC1=O	33.3
CCCC(=O)Oc1c(OC)ccc2c1[C@@]13CCN(C)[C@@H](C2)[C@H]1C=C(OC)C(=O)C3	> 50
C=CC(=O)NCCC(=O)Oc1c(OC)ccc2c1[C@@]13CCN(C)[C@@H](C2)[C@H]1C=C(OC)C(=O)C3	> 50
COC1=C[C@@H]2[C@@H]3Cc4ccc(OC)c(OC(=O)c5ccccc5)c4[C@]2(CCN3C)CC1=O	> 50
COC1=C[C@@H]2[C@@H]3Cc4ccc(OC)c(OC(=O)CCCCCCCCCCCNC(=O)/C=C/C(F)(F)F)c4[C@]2(CCN3C)CC1=O	7.84
COC1=C[C@@H]2[C@@H]3Cc4ccc(OC)c(OC(C)=O)c4[C@]2(CCN3C)CC1=O	> 50
C=CCCC(=O)Oc1c(OC)ccc2c1[C@@]13CCN(C)[C@@H](C2)[C@H]1C=C(OC)C(=O)C3	> 50
CCCCCCCCCCCC(=O)Oc1c(OC)ccc2c1[C@@]13CCN(C)[C@@H](C2)[C@H]1C=C(OC)C(=O)C3	5.69
COC1=C[C@@H]2[C@@H]3Cc4ccc(OC)c(OC(=O)c5ccc(Cl)cc5)c4[C@]2(CCN3C)CC1=O	> 50

Tested on: not listed separately
Experiment: Cytotoxicity against human NCM460 cells assessed as inhibition of cell growth incubated for 48 hrs by CCK-8 assay
Type: toxicity, cell-based
Details: not given

Compound	IC50 at 48 h [µM]
COCC(=O)Oc1c(OC)ccc2c1[C@@]13CCN(C)[C@@H](C2)[C@H]1C=C(OC)C(=O)C3	> 50
C=CC(=O)NCCCCCCCCCCCC(=O)Oc1c(OC)ccc2c1[C@@]13CCN(C)[C@@H](C2)[C@H]1C=C(OC)C(=O)C3	33.2
C=CC(=O)NCCCCCCCC(=O)Oc1c(OC)ccc2c1[C@@]13CCN(C)[C@@H](C2)[C@H]1C=C(OC)C(=O)C3	> 50
C=C(Cl)C(=O)NCCCCCCCC(=O)Oc1c(OC)ccc2c1[C@@]13CCN(C)[C@@H](C2)[C@H]1C=C(OC)C(=O)C3	> 50
C=CC(=O)Oc1c(OC)ccc2c1[C@@]13CCN(C)[C@@H](C2)[C@H]1C=C(OC)C(=O)C3	32.5
COC1=C[C@@H]2[C@@H]3Cc4ccc(OC)c(OC(=O)c5ccc(OC)cc5)c4[C@]2(CCN3C)CC1=O	> 50
CCO/C=C/C(=O)Oc1c(OC)ccc2c1[C@@]13CCN(C)[C@@H](C2)[C@H]1C=C(OC)C(=O)C3	> 50
C/C=C/C(=O)Oc1c(OC)ccc2c1[C@@]13CCN(C)[C@@H](C2)[C@H]1C=C(OC)C(=O)C3	> 50
COC1=C[C@@H]2[C@@H]3Cc4ccc(OC)c(OC(=O)/C=C/C(F)(F)F)c4[C@]2(CCN3C)CC1=O	16
CCCCCCC(=O)Oc1c(OC)ccc2c1[C@@]13CCN(C)[C@@H](C2)[C@H]1C=C(OC)C(=O)C3	> 50
COC1=C[C@@H]2[C@@H]3Cc4ccc(OC)c(OC(=O)CCNC(=O)/C=C/C(F)(F)F)c4[C@]2(CCN3C)CC1=O	> 50
C=C(C)C(=O)Oc1c(OC)ccc2c1[C@@]13CCN(C)[C@@H](C2)[C@H]1C=C(OC)C(=O)C3	> 50
COC1=C[C@@H]2[C@@H]3Cc4ccc(OC)c(OC(=O)CCCCCCCNC(=O)/C=C/C(F)(F)F)c4[C@]2(CCN3C)CC1=O	> 50
COC1=C[C@@H]2[C@@H]3Cc4ccc(OC)c(OC(=O)/C=C/c5ccccc5)c4[C@]2(CCN3C)CC1=O	> 50
C=C(Cl)C(=O)NCCC(=O)Oc1c(OC)ccc2c1[C@@]13CCN(C)[C@@H](C2)[C@H]1C=C(OC)C(=O)C3	34.5
C=C(Cl)C(=O)Oc1c(OC)ccc2c1[C@@]13CCN(C)[C@@H](C2)[C@H]1C=C(OC)C(=O)C3	35.2
COC1=C[C@@H]2[C@@H]3Cc4ccc(OC)c(OC(=O)C5CC5)c4[C@]2(CCN3C)CC1=O	> 50
COC1=C[C@@H]2[C@@H]3Cc4ccc(OC)c(OC(=O)C(C)C)c4[C@]2(CCN3C)CC1=O	> 50
COC1=C[C@@H]2[C@@H]3Cc4ccc(OC)c(O)c4[C@]2(CCN3C)CC1=O [SINOMENINE]	> 50
COC1=C[C@@H]2[C@@H]3Cc4ccc(OC)c(OC(=O)CCl)c4[C@]2(CCN3C)CC1=O	> 50
CCCC(=O)Oc1c(OC)ccc2c1[C@@]13CCN(C)[C@@H](C2)[C@H]1C=C(OC)C(=O)C3	> 50
C=CC(=O)NCCC(=O)Oc1c(OC)ccc2c1[C@@]13CCN(C)[C@@H](C2)[C@H]1C=C(OC)C(=O)C3	> 50
COC1=C[C@@H]2[C@@H]3Cc4ccc(OC)c(OC(=O)c5ccccc5)c4[C@]2(CCN3C)CC1=O	> 50
COC1=C[C@@H]2[C@@H]3Cc4ccc(OC)c(OC(=O)CCCCCCCCCCCNC(=O)/C=C/C(F)(F)F)c4[C@]2(CCN3C)CC1=O	22.9
COC1=C[C@@H]2[C@@H]3Cc4ccc(OC)c(OC(C)=O)c4[C@]2(CCN3C)CC1=O	> 50
C=CCCC(=O)Oc1c(OC)ccc2c1[C@@]13CCN(C)[C@@H](C2)[C@H]1C=C(OC)C(=O)C3	> 50
CCCCCCCCCCCC(=O)Oc1c(OC)ccc2c1[C@@]13CCN(C)[C@@H](C2)[C@H]1C=C(OC)C(=O)C3	9.85
COC1=C[C@@H]2[C@@H]3Cc4ccc(OC)c(OC(=O)c5ccc(Cl)cc5)c4[C@]2(CCN3C)CC1=O	> 50

Tested on: HT-29
Experiment: Cytotoxicity against human HT-29 cells assessed as inhibition of cell growth incubated for 48 hrs by CCK-8 assay
Type: functional, cell-based
Details: HT-29, 48 h

Compound	IC50 [µM]
COCC(=O)Oc1c(OC)ccc2c1[C@@]13CCN(C)[C@@H](C2)[C@H]1C=C(OC)C(=O)C3	> 50
C=CC(=O)NCCCCCCCCCCCC(=O)Oc1c(OC)ccc2c1[C@@]13CCN(C)[C@@H](C2)[C@H]1C=C(OC)C(=O)C3	7.14
C=CC(=O)NCCCCCCCC(=O)Oc1c(OC)ccc2c1[C@@]13CCN(C)[C@@H](C2)[C@H]1C=C(OC)C(=O)C3	> 50
C=C(Cl)C(=O)NCCCCCCCC(=O)Oc1c(OC)ccc2c1[C@@]13CCN(C)[C@@H](C2)[C@H]1C=C(OC)C(=O)C3	17.8
C=CC(=O)Oc1c(OC)ccc2c1[C@@]13CCN(C)[C@@H](C2)[C@H]1C=C(OC)C(=O)C3	9.12
COC1=C[C@@H]2[C@@H]3Cc4ccc(OC)c(OC(=O)c5ccc(OC)cc5)c4[C@]2(CCN3C)CC1=O	> 50
CCO/C=C/C(=O)Oc1c(OC)ccc2c1[C@@]13CCN(C)[C@@H](C2)[C@H]1C=C(OC)C(=O)C3	> 50
C/C=C/C(=O)Oc1c(OC)ccc2c1[C@@]13CCN(C)[C@@H](C2)[C@H]1C=C(OC)C(=O)C3	> 50
COC1=C[C@@H]2[C@@H]3Cc4ccc(OC)c(OC(=O)/C=C/C(F)(F)F)c4[C@]2(CCN3C)CC1=O	5.99
CCCCCCC(=O)Oc1c(OC)ccc2c1[C@@]13CCN(C)[C@@H](C2)[C@H]1C=C(OC)C(=O)C3	31.9
COC1=C[C@@H]2[C@@H]3Cc4ccc(OC)c(OC(=O)CCNC(=O)/C=C/C(F)(F)F)c4[C@]2(CCN3C)CC1=O	> 50
C=C(C)C(=O)Oc1c(OC)ccc2c1[C@@]13CCN(C)[C@@H](C2)[C@H]1C=C(OC)C(=O)C3	> 50
COC1=C[C@@H]2[C@@H]3Cc4ccc(OC)c(OC(=O)CCCCCCCNC(=O)/C=C/C(F)(F)F)c4[C@]2(CCN3C)CC1=O	> 50
COC1=C[C@@H]2[C@@H]3Cc4ccc(OC)c(OC(=O)/C=C/c5ccccc5)c4[C@]2(CCN3C)CC1=O	> 50
C=C(Cl)C(=O)NCCC(=O)Oc1c(OC)ccc2c1[C@@]13CCN(C)[C@@H](C2)[C@H]1C=C(OC)C(=O)C3	9.45
C=C(Cl)C(=O)Oc1c(OC)ccc2c1[C@@]13CCN(C)[C@@H](C2)[C@H]1C=C(OC)C(=O)C3	8.66
COC1=C[C@@H]2[C@@H]3Cc4ccc(OC)c(OC(=O)C5CC5)c4[C@]2(CCN3C)CC1=O	> 50
COC1=C[C@@H]2[C@@H]3Cc4ccc(OC)c(OC(=O)C(C)C)c4[C@]2(CCN3C)CC1=O	> 50
COC1=C[C@@H]2[C@@H]3Cc4ccc(OC)c(O)c4[C@]2(CCN3C)CC1=O [SINOMENINE]	> 50
COC1=C[C@@H]2[C@@H]3Cc4ccc(OC)c(OC(=O)CCl)c4[C@]2(CCN3C)CC1=O	> 50
CCCC(=O)Oc1c(OC)ccc2c1[C@@]13CCN(C)[C@@H](C2)[C@H]1C=C(OC)C(=O)C3	> 50
C=CC(=O)NCCC(=O)Oc1c(OC)ccc2c1[C@@]13CCN(C)[C@@H](C2)[C@H]1C=C(OC)C(=O)C3	> 50
COC1=C[C@@H]2[C@@H]3Cc4ccc(OC)c(OC(=O)c5ccccc5)c4[C@]2(CCN3C)CC1=O	> 50
COC1=C[C@@H]2[C@@H]3Cc4ccc(OC)c(OC(=O)CCCCCCCCCCCNC(=O)/C=C/C(F)(F)F)c4[C@]2(CCN3C)CC1=O	8.71
COC1=C[C@@H]2[C@@H]3Cc4ccc(OC)c(OC(C)=O)c4[C@]2(CCN3C)CC1=O	> 50
C=CCCC(=O)Oc1c(OC)ccc2c1[C@@]13CCN(C)[C@@H](C2)[C@H]1C=C(OC)C(=O)C3	> 50
CCCCCCCCCCCC(=O)Oc1c(OC)ccc2c1[C@@]13CCN(C)[C@@H](C2)[C@H]1C=C(OC)C(=O)C3	4
COC1=C[C@@H]2[C@@H]3Cc4ccc(OC)c(OC(=O)c5ccc(Cl)cc5)c4[C@]2(CCN3C)CC1=O	25.1
